Measured values: ChEMBL document CHEMBL1201862, “PubChem BioAssay data set” (2004)
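Test compounds were applied to cells in 96-well plates for 48 hours at 5 doses. GI50: concentration for 50% inhibition of growth.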 Active and inactive are the calls of the source. Cut-off read from the data, not from the text of the source: active = GI50 up to about 1.1 µM and inactive = higher. Starred links: 1 amine or outer side, 2 acyl side, 3 side chain; linkers in the order of their positions; H or OH if unused. Positions of bridges follow the written chain, without caps; N, C: chain ends. Non-standard residues stand in square brackets, D forms with d. Residues, ends and D or L forms follow the SMILES beside them. Chains are numbered I, II in the order given. Actinocin(9to1) = Cc1c2oc3c(C)ccc(C(=O)[*:1])c3nc-2c(C(=O)[*:2])c(N)c1=O; NMeV = CN[CH](C(=O)O)C(C)C; Sar = CNCC(=O)O

Legend:
Experiment in all cases: NCI-60 cell line screen, 48 h
SN12C = tested on: SN12C
A498 = tested on: A498
SK-OV-3 = tested on: SK-OV-3
MOLT-4 = tested on: MOLT-4
CAKI-1 = tested on: CAKI-1
786-0 = tested on: 786-0
NCI-H460 = tested on: NCI-H460
MDA-N = tested on: MDA-N
NCI-H23 = tested on: NCI-H23
HCT-116 = tested on: HCT-116
UO-31 = tested on: UO-31
Malme-3M = tested on: Malme-3M
NCI-H522 = tested on: NCI-H522
UACC-257 = tested on: UACC-257
DU-145 = tested on: DU-145
MCF7 = tested on: MCF7
SF-539 = tested on: SF-539
OVCAR-8 = tested on: OVCAR-8
SK-MEL-28 = tested on: SK-MEL-28
HOP-92 = tested on: HOP-92

Compound	GI50 (SN12C)	GI50 (A498)	GI50 (SK-OV-3)	GI50 (MOLT-4)	GI50 (CAKI-1)	GI50 (786-0)	GI50 (NCI-H460)	GI50 (MDA-N)	GI50 (NCI-H23)	GI50 (HCT-116)	GI50 (UO-31)	GI50 (Malme-3M)	GI50 (NCI-H522)	GI50 (UACC-257)	GI50 (DU-145)	GI50 (MCF7)	GI50 (SF-539)	GI50 (OVCAR-8)	GI50 (SK-MEL-28)	GI50 (HOP-92)
Cc1cc(N(CCC#N)CCC#N)ccc1C(/N=N/c1ccc(Cl)cc1)=N\NC(=O)c1ccccc1	44.2 µM (inactive)	13.6 µM (inactive)	42.6 µM (inactive)	40 µM (inactive)	98.9 µM (inactive)	34.6 µM (inactive)	39.7 µM (inactive)	5.21 µM (inactive)	33.7 µM (inactive)	26.5 µM (inactive)	67.6 µM (inactive)	20.4 µM (inactive)	18.4 µM (inactive)	58.7 µM (inactive)	44.7 µM (inactive)	13.6 µM (inactive)	7.62 µM (inactive)	42.1 µM (inactive)		
N#C/C(=C\c1cc(F)cc(F)c1)c1ccccn1	24 µM (inactive)		61.8 µM (inactive)	13.7 µM (inactive)	39.5 µM (inactive)	> 10 µM (inactive)	22.7 µM (inactive)	19.7 µM (inactive)	26.1 µM (inactive)	27.9 µM (inactive)	34.7 µM (inactive)	25.9 µM (inactive)	24.2 µM (inactive)	32.1 µM (inactive)	36.9 µM (inactive)	26.9 µM (inactive)	19.5 µM (inactive)	16 µM (inactive)	47 µM (inactive)	20.5 µM (inactive)
Cc1nc2ccccc2n1Cc1nnc2n1N=C(c1ccccc1)CS2	36.6 µM (inactive)	43.8 µM (inactive)	> 100 µM (inactive)	27.2 µM (inactive)	37.2 µM (inactive)	44 µM (inactive)	33.5 µM (inactive)	32.3 µM (inactive)	33.2 µM (inactive)	27.7 µM (inactive)	38.2 µM (inactive)	49.9 µM (inactive)	22.1 µM (inactive)	22.5 µM (inactive)	37.5 µM (inactive)	27.4 µM (inactive)	12.5 µM (inactive)		50.1 µM (inactive)	
CN1C(C)(C)CC(=O)C(Br)C1(C)C (stereo not drawn)	> 100 µM (inactive)		> 100 µM (inactive)	> 100 µM (inactive)	> 100 µM (inactive)	> 100 µM (inactive)	> 100 µM (inactive)	> 100 µM (inactive)	> 100 µM (inactive)	> 10 µM (inactive)	> 100 µM (inactive)	> 100 µM (inactive)	> 100 µM (inactive)	> 100 µM (inactive)	> 100 µM (inactive)	> 100 µM (inactive)		> 100 µM (inactive)	> 100 µM (inactive)	> 100 µM (inactive)
CC(=O)O[C@H]1CC[C@H]2[C@@H]3CCC4=C/C(=N/OCCN(C)C)CC[C@]4(C)[C@H]3CC[C@]12C	16.9 µM (inactive)		12.2 µM (inactive)	5.42 µM (inactive)	14 µM (inactive)	8.17 µM (inactive)	8.22 µM (inactive)	3.65 µM (inactive)	12.9 µM (inactive)	4.25 µM (inactive)	14.9 µM (inactive)	13.3 µM (inactive)	6.87 µM (inactive)	7.38 µM (inactive)	16.1 µM (inactive)	5.64 µM (inactive)	2.52 µM (inactive)	13.4 µM (inactive)	14.6 µM (inactive)	
COC(O)C(=O)c1c2c(cc3c1CCC3)CCCC2 (stereo not drawn)	4.66 µM (inactive)	13.5 µM (inactive)	12 µM (inactive)	3.38 µM (inactive)	14.7 µM (inactive)	14.1 µM (inactive)	7.5 µM (inactive)	13 µM (inactive)	10.7 µM (inactive)	2.02 µM (inactive)	17.7 µM (inactive)	14 µM (inactive)	3.84 µM (inactive)	12.6 µM (inactive)	14.1 µM (inactive)	5.27 µM (inactive)	4.32 µM (inactive)	7.87 µM (inactive)	9.48 µM (inactive)	
COc1ccc(-c2oc3cc(OC(C)=O)cc(OC(C)=O)c3c(=O)c2OC)cc1		21.7 µM (inactive)	28.8 µM (inactive)	20.2 µM (inactive)	4.04 µM (inactive)		16.9 µM (inactive)	12.7 µM (inactive)		21 µM (inactive)	19.6 µM (inactive)	26.5 µM (inactive)	2.12 µM (inactive)	19.7 µM (inactive)	15.5 µM (inactive)	20.7 µM (inactive)		17 µM (inactive)	13.7 µM (inactive)	
C=C1C(=O)O[C@H]2C/C(C=O)=C\[C@H]3O[C@H]3/C(COC(=O)C(C)C)=C/CC12 (stereo partly drawn)	2.54 µM (inactive)			3.06 µM (inactive)	2.65 µM (inactive)	2.9 µM (inactive)	10.5 µM (inactive)	2.91 µM (inactive)	4.97 µM (inactive)	3.05 µM (inactive)	5.58 µM (inactive)	10.3 µM (inactive)	3.39 µM (inactive)	11.1 µM (inactive)	11.1 µM (inactive)	5.21 µM (inactive)	21.5 µM (inactive)	3.14 µM (inactive)	3.3 µM (inactive)	
CCC(C(=O)c1ccc(OC)c(OC)c1)N(C(=O)C(F)(F)F)C(C)c1ccccc1 (stereo not drawn)			> 100 µM (inactive)	> 100 µM (inactive)	> 100 µM (inactive)		> 100 µM (inactive)	> 100 µM (inactive)		> 100 µM (inactive)	> 100 µM (inactive)	> 100 µM (inactive)	> 100 µM (inactive)	> 100 µM (inactive)	> 100 µM (inactive)	> 100 µM (inactive)		> 100 µM (inactive)	> 100 µM (inactive)	
Cc1c2oc3c(C)ccc(C(=O)NC4C(=O)NC(Cc5ccc(O)cc5)C(=O)N5CCCC5C(=O)N(C)CC(=O)N(C)C(C(C)C)C(=O)OC4C)c3nc-2c(C(=O)NC2C(=O)NC(Cc3ccc(O)cc3)C(=O)N3CCCC3C(=O)N(C)CC(=O)N(C)C(C(C)C)C(=O)OC2C)c(N)c1=O (stereo not drawn) (I: TYP[Sar][NMeV] / II: TYP[Sar][NMeV]; ester I:1-I:C, II:1-II:C; linker I:N-II:N via Actinocin(9to1); configuration not given here)	1.48 µM (inactive)	16 µM (inactive)	10.5 µM (inactive)	0.178 µM (active)	3.57 µM (inactive)	0.368 µM (active)	0.215 µM (active)	0.535 µM (active)	0.494 µM (active)	0.11 µM (active)	17.9 µM (inactive)	0.392 µM (active)	0.877 µM (active)	1.56 µM (inactive)	1.43 µM (inactive)	0.0805 µM (active)	0.726 µM (active)	0.8 µM (active)	0.365 µM (active)	
N#Cc1c(N)sc2c1-c1ccccc1OC2	19.7 µM (inactive)	29.3 µM (inactive)	38.2 µM (inactive)	17.5 µM (inactive)			36.4 µM (inactive)	21.1 µM (inactive)	45.4 µM (inactive)	27.3 µM (inactive)	25.2 µM (inactive)	41.2 µM (inactive)		> 100 µM (inactive)	50.1 µM (inactive)	40 µM (inactive)	46.6 µM (inactive)		44.2 µM (inactive)	44 µM (inactive)
CCOC(=O)C1C(=O)C=C(c2cc(C)ccc2O)CC1c1cccc(Cl)c1 (stereo not drawn)	27.7 µM (inactive)		20 µM (inactive)	22.6 µM (inactive)	30.7 µM (inactive)	36.6 µM (inactive)	26.1 µM (inactive)	6.04 µM (inactive)	26.4 µM (inactive)	34 µM (inactive)	19.6 µM (inactive)	17.3 µM (inactive)	12.4 µM (inactive)	2.12 µM (inactive)	50.1 µM (inactive)	19.5 µM (inactive)	19.6 µM (inactive)	29.3 µM (inactive)		13.5 µM (inactive)
Cc1c(-c2ccccc2)[nH]c2cc(Cl)ccc2c1=O	> 100 µM (inactive)	> 100 µM (inactive)	39.4 µM (inactive)	> 100 µM (inactive)	29.2 µM (inactive)		0.631 µM (active)	10.2 µM (inactive)	36.3 µM (inactive)	23.8 µM (inactive)	0.0135 µM (active)	65 µM (inactive)		49.2 µM (inactive)	> 100 µM (inactive)	37 µM (inactive)	39.8 µM (inactive)		71.9 µM (inactive)	
COc1c(C(=O)/C(=N/Nc2cccc(Cl)c2)C(C)=O)c(O)c(OC)c2occc12	61.2 µM (inactive)		> 100 µM (inactive)	39.5 µM (inactive)	> 100 µM (inactive)	> 100 µM (inactive)	65.8 µM (inactive)	> 100 µM (inactive)	> 100 µM (inactive)	> 100 µM (inactive)	37.2 µM (inactive)	60.1 µM (inactive)	> 100 µM (inactive)	> 100 µM (inactive)	> 100 µM (inactive)	> 100 µM (inactive)	> 100 µM (inactive)	60.4 µM (inactive)	> 100 µM (inactive)	67.1 µM (inactive)
O=C1CCc2ccc3c(c21)CC1(Cc2ccccc2C1)C3	4.8 µM (inactive)		41.4 µM (inactive)	3.8 µM (inactive)	5.24 µM (inactive)	6.58 µM (inactive)	2.57 µM (inactive)	2.69 µM (inactive)	11.6 µM (inactive)	3.98 µM (inactive)	3.45 µM (inactive)	10.5 µM (inactive)	10.2 µM (inactive)	5.48 µM (inactive)	13 µM (inactive)	19.2 µM (inactive)	5.45 µM (inactive)	7.62 µM (inactive)	4.37 µM (inactive)	5.96 µM (inactive)
